Patent US10227357B2, “Compounds and methods for kinase modulation, and indications therefor” (Plexxikon Inc., priority 2012, dated 2019)

These compounds were tested against T1, c-kit kinase (Homo sapiens, UniProt P10721) (assay: c-Kit biochemical assay, AlphaScreen, 10 μM ATP). Conditions: c-kit biochemical inhibitory activity; read-out: Biochemical activity (IC50 μM) Kit.
T1 construct: The c-kit (or kinase domain thereof) is an active kinase in AlphaScreen; poly-Histidine tag (in-house protein only) (cleaved yes); host or cells: E. coli BL21(DE3)RIL, co-expressed with PTP1B
T1 sequence (P10721 26-976): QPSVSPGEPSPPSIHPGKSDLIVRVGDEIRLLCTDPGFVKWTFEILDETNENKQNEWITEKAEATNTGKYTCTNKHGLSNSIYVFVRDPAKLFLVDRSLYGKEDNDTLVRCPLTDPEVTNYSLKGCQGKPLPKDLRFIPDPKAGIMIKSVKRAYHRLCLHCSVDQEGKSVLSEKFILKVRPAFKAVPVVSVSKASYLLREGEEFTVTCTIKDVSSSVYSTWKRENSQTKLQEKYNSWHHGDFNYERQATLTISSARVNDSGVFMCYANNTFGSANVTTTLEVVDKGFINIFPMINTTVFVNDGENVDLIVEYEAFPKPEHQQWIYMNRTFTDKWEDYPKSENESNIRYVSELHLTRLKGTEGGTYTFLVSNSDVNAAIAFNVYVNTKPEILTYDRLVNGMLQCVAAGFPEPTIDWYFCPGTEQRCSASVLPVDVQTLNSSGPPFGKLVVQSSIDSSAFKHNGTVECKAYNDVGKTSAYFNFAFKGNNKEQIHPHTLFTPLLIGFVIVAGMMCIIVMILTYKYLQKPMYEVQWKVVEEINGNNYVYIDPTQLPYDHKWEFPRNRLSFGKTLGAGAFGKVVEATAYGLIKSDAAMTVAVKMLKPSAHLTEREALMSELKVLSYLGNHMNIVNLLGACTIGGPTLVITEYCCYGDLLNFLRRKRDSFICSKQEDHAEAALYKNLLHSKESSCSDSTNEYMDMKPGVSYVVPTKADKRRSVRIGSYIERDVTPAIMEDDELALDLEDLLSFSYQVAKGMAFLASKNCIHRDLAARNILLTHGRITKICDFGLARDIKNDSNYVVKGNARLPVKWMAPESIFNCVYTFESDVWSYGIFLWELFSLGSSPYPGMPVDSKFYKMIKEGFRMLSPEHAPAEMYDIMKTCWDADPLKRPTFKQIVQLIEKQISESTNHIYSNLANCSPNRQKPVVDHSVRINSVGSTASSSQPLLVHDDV
Description: IC50 values are determined with respect to inhibition of c-Kit kinase activity, where inhibition of phosphorylation of a peptide substrate is measured as a function of compound concentration. Compounds to be tested were dissolved in DMSO to a concentration of 20 mM. These were diluted 30 μl into 120 μl of DMSO (4 mM) and 1 μl was added to an assay plate. These were then serially diluted 1:3 (50 μl to 100 μl DMSO) for a total of 8 points. Plates were prepared such that each kinase reaction is 20 μl in 1× kinase buffer (50 mM HEPES, pH 7.2, 5 mM MgCl2, 5 mM MnCl2, 0.01% NP-40, 0.2% BSA), 5% DMSO and 10 μM ATP. […] C-kit kinase was at 0.1 ng per sample. After incubation of the kinase reaction for 1 hour at room temperature, 5 μl of donor beads (Streptavidin coated beads (Perkin Elmer Life Science) final concentration 1 μg/ml) in stop buffer (50 mM EDTA in 1× kinase buffer) was added, the sample was mixed and incubated for 20 minutes at room temperature before adding 5 μl of acceptor beads (PY20 coated beads (Perkin Elmer Life Science) final concentration 1 μg/ml) in stop buffer. The samples were incubated for 60 minutes at room temperature and the signal per well was read on AlphaQuest reader. […] The signal vs. compound concentration was used to determine the IC50.
Complementary DNA cloned from various human tissues were purchased from Invitrogen, and these were used as substrates in the PCR reactions. Specific custom synthetic oligonucleotide primers were designed to initiate the PCR product, and also to provide the appropriate restriction enzyme cleavage sites for ligation with the plasmids. The entire sequence encoding the enzyme was made through a gene synthesis procedure, using custom synthetic oligonucleotides covering the entire coding sequence (Invitrogen, see below).
The plasmid used for ligation with the kinase-encoding inserts was derivative of pET (Novagen) for expression using E. coli. The Kit kinase was engineered to include a Histidine tag for purification using metal affinity chromatography. The kinase-encoding plasmid was engineered as bicistronic mRNA to co-express a second protein that modifies the kinase protein during its expression in the host cell. Protein tyrosine phosphatase 1B (PTP), was co-expressed for dephosphorylation of the phospho-Tyrosines.
For protein expression, the plasmid containing the Kit gene was transformed into E. coli strains BL21(DE3)RIL and transformants selected for growth on LB agar plates containing appropriate antibiotics. Single colonies were grown overnight at 37° C. in 200 ml TB (Terrific broth) media. 16×1 L of fresh TB media in 2.8 L flasks were inoculated with 10 ml of overnight culture and grown with constant shaking at 37° C. Once cultures reached an absorbance of 1.0 at 600 nm, IPTG was added and cultures were allowed to grow for a further 12 to 18 hrs at temperatures ranging from 12-30° C. Cells were harvested by centrifugation and pellets frozen at […] until ready for lysis.
For protein Purification; frozen E. coli cell pellets were resuspended in lysis buffer and lysed using standard mechanical methods. Protein was purified via poly-Histidine tags using immobilized metal affinity purification IMAC. The Kit kinase was purified using a 3 step purification process utilizing; IMAC, size exclusion chromatography and ion exchange chromatography. The poly-Histidine tag was removed using Thrombin (Calbiochem).

First: CN(C)c1ccc(NC(=O)N2CCN(c3ncnc4[nH]ccc34)CC2)cc1 [P-0132, N-(4-dimethylaminophenyl)-4-(7H-pyrrolo[2,3-d]pyrimidin-4-yl)piperazine-1-carboxamide]
Second: CCc1ccc(NC(=O)N2CCN(c3ncnc4[nH]ccc34)CC2)cc1 [P-0202, N-(4-ethylphenyl)-4-(7H-pyrrolo[2,3-d]pyrimidin-4-yl)piperazine-1-carboxamide]
The IC50 of the first is lower: 1 to 10 µM for the first, 10 to 200 µM for the second.

`N#Cc1c[nH]c2ncnc(N3CCN(C(=O)NCc4ccc(F)cc4)CC3)c12` [P-0158, 4-(5-cyano-7H-pyrrolo[2,3-d]pyrimidin-4-yl)-N-[(4-fluorophenyl)methyl]piperazine-1-carboxamide] and `O=C(NCc1ccc(F)cc1)N1CCN(c2ncnc3[nH]c(CC4CC4)cc23)CC1` [P-0210, 4-[6-(cyclopropylmethyl)-7H-pyrrolo[2,3-d]pyrimidin-4-yl]-N-[(4-fluorophenyl)methyl]piperazine-1-carboxamide] fall in the same range of IC50: 10 to 200 µM for the first, 10 to 200 µM for the second.

`COc1ccc(NC(=O)N2CCN(c3ncnc4[nH]ccc34)CC2)cc1OC` [P-0173, N-(3,4-dimethoxyphenyl)-4-(7H-pyrrolo[2,3-d]pyrimidin-4-yl)piperazine-1-carboxamide] and `O=C(Nc1ccc(F)c(F)c1)N1CCN(c2ncnc3[nH]ccc23)CC1` [P-0175, N-(3,4-difluorophenyl)-4-(7H-pyrrolo[2,3-d]pyrimidin-4-yl)piperazine-1-carboxamide] fall in the same range of IC50: 10 to 200 µM for the first, 10 to 200 µM for the second.

`C[C@H](NC(=O)N1CCN(c2ncnc3[nH]c(-c4ccc(F)cc4)cc23)CC1)c1ccc(Cl)cc1` [P-0178, N-[(1S)-1-(4-chlorophenyl)ethyl]-4-[6-(4-fluorophenyl)-7H-pyrrolo[2,3-d]pyrimidin-4-yl]piperazine-1-carboxamide] and `O=C(NCc1ccc(C(F)(F)F)nc1)N1CCN(c2ncnc3[nH]c(-c4ccc(Cl)cc4)cc23)CC1` [P-0180, 4-[6-(4-chlorophenyl)-7H-pyrrolo[2,3-d]pyrimidin-4-yl]-N-[[6-(trifluoromethyl)-3-pyridyl]methyl]piperazine-1-carboxamide] fall in the same range of IC50: 10 to 200 µM for the first, 10 to 200 µM for the second.

`COc1ccc(S(=O)(=O)N2CCN(c3ncnc4[nH]ccc34)CC2)c(N)c1` [P-0190, 5-methoxy-2-[4-(7H-pyrrolo[2,3-d]pyrimidin-4-yl)piperazin-1-yl]sulfonyl-aniline] and `O=S(=O)(c1ccccc1)N1CCN(c2ncnc3[nH]ccc23)CC1` [P-0200, 4-[4-(benzenesulfonyl)piperazin-1-yl]-7H-pyrrolo[2,3-d]pyrimidine] fall in the same range of IC50: 10 to 200 µM for the first, 10 to 200 µM for the second.

`O=C(Nc1ccccc1)c1cc2c(N3CCN(C(=O)NCc4ccc(F)cc4)CC3)ncnc2[nH]1` [P-0193, 4-[4-[(4-fluorophenyl)methylcarbamoyl]piperazin-1-yl]-N-phenyl-7H-pyrrolo[2,3-d]pyrimidine-6-carboxamide] and `O=C(c1ccc(Cl)cc1)c1cc2c(N3CCN(C(=O)NCc4ccc(F)cc4)CC3)ncnc2[nH]1` [P-0207, 4-[6-(4-chlorobenzoyl)-7H-pyrrolo[2,3-d]pyrimidin-4-yl]-N-[(4-fluorophenyl)methyl]piperazine-1-carboxamide] fall in the same range of IC50: 10 to 200 µM for the first, 10 to 200 µM for the second.

`CCCC(=O)N1CCN(c2ncnc3[nH]ccc23)CC1` [P-0194, 1-[4-(7H-pyrrolo[2,3-d]pyrimidin-4-yl)piperazin-1-yl]butan-1-one] and `CCCNC(=O)N1CCN(c2ncnc3[nH]ccc23)CC1` [P-0203, N-propyl-4-(7H-pyrrolo[2,3-d]pyrimidin-4-yl)piperazine-1-carboxamide] fall in the same range of IC50: 10 to 200 µM for the first, 10 to 200 µM for the second.

`O=C(C1CCCCC1)N1CCN(c2ncnc3[nH]ccc23)CC1` [P-0195, cyclohexyl-[4-(7H-pyrrolo[2,3-d]pyrimidin-4-yl)piperazin-1-yl]methanone] and `O=C(C1CCCC1)N1CCN(c2ncnc3[nH]ccc23)CC1` [P-0196, cyclopentyl-[4-(7H-pyrrolo[2,3-d]pyrimidin-4-yl)piperazin-1-yl]methanone] fall in the same range of IC50: 10 to 200 µM for the first, 10 to 200 µM for the second.

First: CCc1ccc(C(=O)N2CCN(c3ncnc4[nH]ccc34)CC2)cc1 [P-0197, (4-ethylphenyl)-[4-(7H-pyrrolo[2,3-d]pyrimidin-4-yl)piperazin-1-yl]methanone]
Second: O=C(c1ccccc1)N1CCN(c2ncnc3[nH]ccc23)CC1 [P-0198, phenyl-[4-(7H-pyrrolo[2,3-d]pyrimidin-4-yl)piperazin-1-yl]methanone]
The IC50 of the first is lower: 1 to 10 µM for the first, 10 to 200 µM for the second.

`CCCS(=O)(=O)N1CCN(c2ncnc3[nH]ccc23)CC1` [P-0199, 4-(4-propylsulfonylpiperazin-1-yl)-7H-pyrrolo[2,3-d]pyrimidine] and `O=C(NC1CCCCC1)N1CCN(c2ncnc3[nH]ccc23)CC1` [P-0204, N-cyclohexyl-4-(7H-pyrrolo[2,3-d]pyrimidin-4-yl)piperazine-1-carboxamide] fall in the same range of IC50: 10 to 200 µM for the first, 10 to 200 µM for the second.

First: CCOc1ccc(NC(=O)N2CCN(c3ncnc4[nH]ccc34)CC2)cc1 [P-0201, N-(4-ethoxyphenyl)-4-(7H-pyrrolo[2,3-d]pyrimidin-4-yl)piperazine-1-carboxamide]
Second: O=C(Nc1ccccc1)N1CCN(c2ncnc3[nH]ccc23)CC1 [P-0205, N-phenyl-4-(7H-pyrrolo[2,3-d]pyrimidin-4-yl)piperazine-1-carboxamide]
The IC50 of the first is lower: 1 to 10 µM for the first, 10 to 200 µM for the second. The first is the more potent here.

`Cc1ccccc1C(=O)c1c[nH]c2ncnc(N3CCN(c4cc(NC5CC5)ncn4)CC3)c12` [P-0206, [4-[4-[6-(cyclopropylamino)pyrimidin-4-yl]piperazin-1-yl]-7H-pyrrolo[2,3-d]pyrimidin-5-yl]-(o-tolyl)methanone] and `COc1cc(NC(=O)N2CCN(c3ncnc4[nH]cc(-c5ccccc5)c34)CC2)cc(OC)c1` [P-0216, N-(3,5-dimethoxyphenyl)-4-(5-phenyl-7H-pyrrolo[2,3-d]pyrimidin-4-yl)piperazine-1-carboxamide] fall in the same range of IC50: 10 to 200 µM for the first, 10 to 200 µM for the second.

`O=C(c1cc2c(N3CCN(C(=O)NCc4ccc(F)cc4)CC3)ncnc2[nH]1)C1CC1` [P-0209, 4-[6-(cyclopropanecarbonyl)-7H-pyrrolo[2,3-d]pyrimidin-4-yl]-N-[(4-fluorophenyl)methyl]piperazine-1-carboxamide] and `COc1ccc(NC(=O)N2CCN(c3ncnc4[nH]c(I)cc34)CC2)cc1` [P-0244, 4-(6-iodo-7H-pyrrolo[2,3-d]pyrimidin-4-yl)-N-(4-methoxyphenyl)piperazine-1-carboxamide] fall in the same range of IC50: 1 to 10 µM for the first, 1 to 10 µM for the second.

`COc1ccc(NC(=O)N2CCN(c3ncnc4[nH]c(-c5ccccc5)cc34)CC2)cc1` [P-0240, N-(4-methoxyphenyl)-4-(6-phenyl-7H-pyrrolo[2,3-d]pyrimidin-4-yl)piperazine-1-carboxamide] and `COc1cc2ncnc(-c3ccc(NS(=O)(=O)C4CC4)cc3)c2cc1OC` [P-0280, N-[4-(6,7-dimethoxyquinazolin-4-yl)phenyl]cyclopropanesulfonamide] fall in the same range of IC50: 10 to 200 µM for the first, 10 to 200 µM for the second.

Compared with `COc1cc2ncnc(-c3ccc(N)c(F)c3)c2cc1OC` [P-0276, 4-(6,7-dimethoxyquinazolin-4-yl)-2-fluoro-aniline], `COc1cc2ncnc(-c3ccc(S(N)(=O)=O)cc3)c2cc1OC` [P-0278, 4-(6,7-dimethoxyquinazolin-4-yl)benzenesulfonamide] is higher in IC50: 1 to 10 µM for the first, 10 to 200 µM for the second.

`COc1cc2ncnc(-c3ccc(S(=O)(=O)NC4CC4)cc3)c2cc1OC` [P-0277, N-cyclopropyl-4-(6,7-dimethoxyquinazolin-4-yl)benzenesulfonamide] and `COc1cc2ncnc(-c3cccc(NS(=O)(=O)C4CC4)c3)c2cc1OC` [P-0279, N-[3-(6,7-dimethoxyquinazolin-4-yl)phenyl]cyclopropanesulfonamide] fall in the same range of IC50: 10 to 200 µM for the first, 10 to 200 µM for the second.

Compound `O=S(=O)(Nc1ccc(-c2ncnc3[nH]c(C(F)F)cc23)c(F)c1)c1ccc(Cl)cc1` [P-0310, 4-chloro-N-[4-[6-(difluoromethyl)-7H-pyrrolo[2,3-d]pyrimidin-4-yl]-3-fluoro-phenyl]benzenesulfonamide] has an IC50 of 1 to 10 µM.
